For 6 compounds, GI50 and IC50 results are on record in patent US10065990B2, “Cyclic peptide compound, and preparation method, pharmaceutical composition and use thereof” (HANGZHOU GUANYU BIO-MEDICAL CO., LTD, priority 2013, dated 2018).

The subject of assay [1] is BGC-823 (human gastric cancer cells). In words: MTT cancer cell growth inhibition. Particulars: Homo sapiens, BGC-823, 72 h, MTT. It is filed as cell-based. Put shortly: (§1)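 GI50 values come from MTT viability: after 72 h compound exposure (final 10^−5–10^−10 M, three wells each) of cells plated overnight at 1500/well in 10% FBS medium, MTT was given for 4 h. The DMSO-solubilised formazan was then measured at 570 nm.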

The test system of assay [2] is K562 (human leukemia cells). In words: MTT cancer cell growth inhibition. It is filed as cell-based. The conditions noted are these: Homo sapiens, K562, 72 h, MTT, 72 hours incubation, K562 cells; read-out: GI50 K562. The essentials: as §1
The test system of assay [3] is Bel-7402 (human hepatoma cells). Put plainly: MTT cancer cell growth inhibition. The conditions noted are these: Homo sapiens, Bel-7402, 72 h, MTT, 72 hours incubation, Bel-7402 cells; read-out: GI50 Bel-7402. It is filed as cell-based. Put shortly: as §1
In assay [4] the test system is DU145 (human prostate cancer cells). In words: MTT cancer cell growth inhibition. Format: cell-based. The conditions noted are these: Homo sapiens, DU-145, 72 h, MTT. The essentials: as §1
Assay [5] has as its system HCC827 (human non-small cell lung cancer cells). Put plainly: MTT cancer cell growth inhibition. Format: cell-based. Particulars: Homo sapiens, HCC827, 72 h, MTT, 72 hours incubation, HCC827 cells; read-out: GI50 HCC827. Put shortly: as §1
The test system of assay [6] is N-87 (human gastric cancer cells). In words: MTT cancer cell growth inhibition. It is filed as cell-based. The conditions noted are these: Homo sapiens, 72 h, MTT, 72 hours incubation, N-87 cells; read-out: GI50 N-87. The essentials:
as §1

In assay [7] the test system is Hela (human cervical cancer cells). In words: MTT cancer cell growth inhibition. It is filed as cell-based. Particulars: Homo sapiens, HeLa, 72 h, MTT. The essentials:
as §1

Assay [8] concerns H1975 (non-small cell lung adenocarcinoma). In words: MTT cancer cell growth inhibition. Format: cell-based. Particulars: Homo sapiens, NCI-H1975, 72 h, MTT, 72 hours incubation, H1975 cells; read-out: GI50 H1975. The essentials: as §1
The test system of assay [9] is KBM-5 (human chronic myelogenous leukemia). Put plainly: MTT cancer cell growth inhibition. It is filed as cell-based. Particulars: Homo sapiens, KBM5, 72 h, MTT, 72 hours incubation, KBM-5 cells; read-out: GI50 KBM-5. Put shortly: as §1
In assay [10] the test system is U937 (human leukemia cells). In words: MTT cancer cell growth inhibition. Format: cell-based. Particulars: Homo sapiens, U-937, 72 h, MTT. Put shortly: as §1
Assay [11] concerns HT1080 (human fibrosarcoma cells). Put plainly: MTT cancer cell growth inhibition. Format: cell-based. The conditions noted are these: Homo sapiens, HT-1080, 72 h, MTT. The essentials:
as §1

Another assay addresses HDAC3 (Homo sapiens, UniProt O15379). Put plainly: HDAC biochemical activity measurement (fluorescent substrate deacetylation).
The next assay has as its target T1, HDAC8 (Homo sapiens, UniProt Q9BY41).
T1 sequence (Q9BY41 1-377): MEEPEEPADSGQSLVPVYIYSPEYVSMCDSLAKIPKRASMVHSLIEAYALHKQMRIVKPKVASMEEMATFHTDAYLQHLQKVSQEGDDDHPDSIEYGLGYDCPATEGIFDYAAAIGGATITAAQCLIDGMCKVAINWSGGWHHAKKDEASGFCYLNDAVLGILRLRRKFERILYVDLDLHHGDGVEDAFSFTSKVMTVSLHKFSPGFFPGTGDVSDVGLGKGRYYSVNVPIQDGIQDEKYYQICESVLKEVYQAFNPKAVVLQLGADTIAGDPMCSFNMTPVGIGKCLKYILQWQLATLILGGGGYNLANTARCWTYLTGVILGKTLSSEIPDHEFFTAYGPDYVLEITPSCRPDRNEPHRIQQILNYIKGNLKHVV
The assay is described as above. The conditions noted are these: 37° C. 30 minutes.

[12] abbreviates: 72 hours incubation, read-out: GI50 BG.
[13] abbreviates: 72 hours incubation, read-out: GI50 Du1.
[14] abbreviates: 72 hours incubation, read-out: GI50 Hela.
The mark [15] stands for this setting: 72 hours incubation, read-out: GI50 U93.
[16] abbreviates: 72 hours incubation, read-out: GI50 HT1.
Setting [17] is: BGC-823 cells, 72 hours incubation, read-out: GI50 BG.
Where [18] appears, read: DU145 cells, 72 hours incubation, read-out: GI50 Du1.
[19] abbreviates: Hela cells, 72 hours incubation, read-out: GI50 Hela.
[20] abbreviates: U937 cells, 72 hours incubation, read-out: GI50 U93.
[21] abbreviates: HT1080 cells, 72 hours incubation, read-out: GI50 HT1.
[22] abbreviates: read-out: IC50 HDAC3, HDAC3, 37° C. 30 minutes.

pIC50: −log10 of the molar value. Like-named read-outs stand apart in the source and are kept apart here.

Sequence of HDAC3 (O15379 whole entry, species assumed): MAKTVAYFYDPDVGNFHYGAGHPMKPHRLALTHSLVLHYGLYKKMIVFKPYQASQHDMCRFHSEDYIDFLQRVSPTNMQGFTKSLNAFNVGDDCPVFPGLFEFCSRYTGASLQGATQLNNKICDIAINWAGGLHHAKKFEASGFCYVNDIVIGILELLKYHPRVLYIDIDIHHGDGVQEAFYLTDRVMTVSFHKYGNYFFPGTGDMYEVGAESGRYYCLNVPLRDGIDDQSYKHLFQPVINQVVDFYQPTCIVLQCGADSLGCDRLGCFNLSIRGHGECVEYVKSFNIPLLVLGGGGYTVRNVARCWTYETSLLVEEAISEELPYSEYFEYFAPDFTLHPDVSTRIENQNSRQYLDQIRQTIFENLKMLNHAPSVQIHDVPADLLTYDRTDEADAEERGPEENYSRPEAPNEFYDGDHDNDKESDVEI
Sequence of HDAC3 (Q9Y618 395-489 partner limits assumed, species assumed): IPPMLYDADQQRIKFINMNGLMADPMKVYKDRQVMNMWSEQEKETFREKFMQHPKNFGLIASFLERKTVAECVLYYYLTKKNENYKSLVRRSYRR

The term GI50 denotes the concentration giving 50% growth inhibition. As usually defined, the pIC50 is the negative decadic logarithm of the IC50, by convention in mol/L. On to `C/C=C1\NC(=O)c2nc(ccc2F)CNC(=O)C[C@@H](/C=C/CCSC(=O)CC)OC(=O)[C@H](C(C)C)NC1=O` [Example 45], for which the GI50 in [1] (setting [12]) stood at 50 nM; in assay [2], 33 nM; in assay [3], 61 nM; in assay [4] (setting [13]) it was 30 nM; in assay [5], 61 nM; in [6] it was 67 nM. The GI50 in [7] (setting [14]) was determined as 90 nM; in assay [8], 34 nM; in assay [9], 94 nM; in [10] (setting [15]) it was 30 nM; in assay [11] (setting [16]) it was 60 nM. Also, the pIC50 against HDAC3 is 7.39; on HDAC8 it was 7.60.

As for `C/C=C1\NC(=O)c2cc(SC)cc(n2)CNC(=O)C[C@@H](/C=C/CCSC=O)OC(=O)[C@H](C(C)C)NC1=O` [Compound 169], the 50% growth inhibitory concentration (GI50) is 60 nM in assay [1] (setting [17]); 37 nM in assay [2]; 46 nM in [3]; 70 nM in assay [4] (setting [18]); 29 nM in [5]; 55 nM in assay [6]. Further, the GI50 in assay [7] (setting [19]) is 20 nM; in assay [8], 44 nM; in [9] it was 51 nM; in assay [10] (setting [20]), 20 nM; in assay [11] (setting [21]), 60 nM. Further, the pIC50 on HDAC3 was 7.80; on HDAC8 it was 7.82.

Take `C/C=C1\NC(=O)c2cccc(n2)CNC(=O)C[C@@H](/C=C/CCSC(=O)CCCCCCC)OC(=O)[C@H](c2ccc(O)cc2)NC1=O` [Compound 238]: the GI50 came out at 140 nM in [1] (setting [17]); 140 nM in [1] (72 hours, present invention, read-out: GI50 BGC823, a); 65 nM in assay [2]; 31 nM in assay [3]; 10 nM in assay [4] (setting [18]); 12 nM in assay [4] (72 hours, present invention, read-out: GI50 Du145, a). The GI50 in [5] came out at 29 nM; in assay [6], 26 nM; in assay [7] (setting [19]), 50 nM; in assay [7] (72 hours, present invention, read-out: GI50 Hela, a), 55 nM; in assay [8] it was 82 nM; in [9] it was 52 nM. Moreover, the GI50 worked out at 15 nM in assay [10] (72 hours, present invention, read-out: GI50 U937, a); 10 nM in [10] (setting [20]); 20 nM in [11] (setting [21]); 26 nM in assay [11] (72 hours, present invention, read-out: GI50 HT1080, a). The pIC50 at HDAC3 (setting [22]) is 7.23; against HDAC8, 7.11.

As to `C/C=C1\NC(=O)c2nc(ccc2SCCC)CNC(=O)C[C@@H](/C=C/CCSC(=O)CCCCCCC)OC(=O)[C@H](CC)NC1=O` [Compound 174], the GI50 in assay [1] (setting [17]) turned out to be 30 nM; in assay [2], 13 nM; in [3], 41 nM; in assay [4] (setting [18]) it was 50 nM; in assay [5] it was 46 nM; in [6], 31 nM. The concentration for 50% growth inhibition (GI50) in assay [7] (setting [19]) turned out to be 20 nM; in [8], 57 nM; in [9], 15 nM; in assay [10] (setting [20]) it was 70 nM; in [11] (setting [21]), 10 nM. The pIC50 is 7.59 at HDAC3 and 7.68 at HDAC8.

As to `C/C=C1\NC(=O)c2cc(SC)cc(n2)CNC(=O)C[C@@H](/C=C/CCSC(C)=O)OC(=O)[C@H](CCCCN)NC1=O` [Compound 193], the GI50 in assay [1] (setting [17]) stood at 30 nM; in assay [2], 35 nM; in assay [3], 35 nM; in assay [4] (setting [18]), 30 nM; in assay [5], 18 nM; in assay [6], 23 nM. Moreover, the GI50 in assay [7] (setting [19]) was determined as 430 nM; in assay [8] it was 11 nM; in assay [9] it was 31 nM; in assay [10] (setting [20]), 50 nM; in assay [11] (setting [21]), 10 nM. The values for the pIC50 against HDAC3 and on HDAC8 were 7.41 and 7.31, respectively.

Consider `C/C=C1\NC(=O)c2cc(F)cc(n2)CNC(=O)C[C@@H](/C=C/CCSC(=O)CCCCCCC)OC(=O)[C@H](CC)NC1=O` [Compound 55], for which the GI50 in [1] (setting [12]) was found to be 50 nM; in [2], 36 nM; in assay [3], 81 nM; in [4] (setting [13]) it was 30 nM; in [5], 81 nM; in assay [6] it was 55 nM. Further, the GI50 in [7] (setting [14]) was determined as 80 nM; in assay [8] it was 52 nM; in [9], 89 nM; in assay [10] (setting [15]), 50 nM; in assay [11] (setting [16]), 80 nM. Besides, the pIC50 is 7.46 at HDAC3 (setting [22]) and 7.37 at HDAC8.
